These results are taken from PMC5762728 (Scientific Reports, 2018).

The target in series [1] is T1, C-domain of bovine ACE (C-ACE) (Bos taurus, UniProt P12820).
T1 sequence (P12820 643-1222 limits assumed): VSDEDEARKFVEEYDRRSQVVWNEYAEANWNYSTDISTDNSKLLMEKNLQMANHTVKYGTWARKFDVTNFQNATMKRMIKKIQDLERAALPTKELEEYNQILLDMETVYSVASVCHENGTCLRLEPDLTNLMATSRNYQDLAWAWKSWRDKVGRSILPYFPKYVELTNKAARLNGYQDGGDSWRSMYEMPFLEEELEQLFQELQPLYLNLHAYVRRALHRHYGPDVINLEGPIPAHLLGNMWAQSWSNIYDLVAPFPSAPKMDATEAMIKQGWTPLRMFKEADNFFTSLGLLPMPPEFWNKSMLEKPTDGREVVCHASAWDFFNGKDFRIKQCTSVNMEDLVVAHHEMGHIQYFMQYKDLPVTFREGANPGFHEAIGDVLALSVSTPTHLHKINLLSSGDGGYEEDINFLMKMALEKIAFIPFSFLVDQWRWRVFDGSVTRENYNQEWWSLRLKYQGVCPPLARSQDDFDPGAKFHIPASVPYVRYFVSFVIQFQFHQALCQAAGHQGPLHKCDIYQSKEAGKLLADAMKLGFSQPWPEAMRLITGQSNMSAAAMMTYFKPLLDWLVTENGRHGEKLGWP
Put plainly: Inhibition of C-ACE hydrolysis of Aβ peptides by lisinopril. Particulars: lisinopril 10 μM; MALDI-TOF MS. The class given is biochemical.

The subject of series [2] is N-domain of ACE (N-ACE). Put plainly: N-ACE with lisinopril. The conditions noted are these: bovine, 37 °C.
A further series concerns C-domain of ACE (C-ACE). In words: C-ACE with lisinopril, ratAβ substrate. Particulars: bovine, 37 °C, up to 60 min.
Series [3] has as its system N-domain of ACE (N-ACE). In words: N-ACE with lisinopril, ratAβ substrate. The conditions noted are these: bovine, 37 °C, up to 60 min.
Series [4] concerns N-ACE (N-domain of bovine ACE). Particulars: 37 °C, up to 60 min.
Series [5] deals with N-domain of ACE. Particulars: cited from earlier work.
The test system of series [6] is N-domain of ACE. The conditions noted are these: cited from earlier work. This is another data set of the same source.
Series [7] addresses T2, N-domain of bovine ACE (N-ACE) (Bos taurus, UniProt P12820).
T2 sequence (P12820 40-624 limits assumed): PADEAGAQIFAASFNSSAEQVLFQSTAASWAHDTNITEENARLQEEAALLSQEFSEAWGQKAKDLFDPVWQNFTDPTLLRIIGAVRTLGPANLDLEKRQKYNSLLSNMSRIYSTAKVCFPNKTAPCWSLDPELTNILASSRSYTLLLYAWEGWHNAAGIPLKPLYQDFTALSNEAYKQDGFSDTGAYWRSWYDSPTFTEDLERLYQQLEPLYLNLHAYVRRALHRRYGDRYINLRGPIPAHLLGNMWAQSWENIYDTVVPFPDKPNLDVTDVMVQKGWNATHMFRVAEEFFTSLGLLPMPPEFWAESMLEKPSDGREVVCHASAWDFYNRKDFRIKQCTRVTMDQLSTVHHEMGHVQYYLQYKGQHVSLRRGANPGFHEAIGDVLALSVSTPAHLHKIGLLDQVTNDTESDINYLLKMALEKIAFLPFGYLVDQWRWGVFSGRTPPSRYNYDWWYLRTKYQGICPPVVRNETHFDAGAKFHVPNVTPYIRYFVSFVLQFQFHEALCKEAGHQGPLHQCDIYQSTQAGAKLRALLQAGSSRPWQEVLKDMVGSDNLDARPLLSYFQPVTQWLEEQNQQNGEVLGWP
Put plainly: Hydrolysis of Aβ metal-binding-domain peptides by N-ACE, products identified/quantified by MALDI-TOF MS.

Series [8] has as its target T1, C-domain of bovine ACE (C-ACE). Put plainly: Hydrolysis of Aβ metal-binding-domain peptides by C-ACE, products identified/quantified by MALDI-TOF MS. Particulars: same experimental conditions as N-ACE, 37 °C.

Turning to `NCCCC[C@H](N[C@@H](CCc1ccccc1)C(=O)O)C(=O)N1CCC[C@H]1C(=O)O` [lisinopril], in series [1], the “Effect of lisinopril on C-ACE hydrolysis of Aβ(1-16)” value was “fully prevented the formation of these products of hydrolysis”.

“[CH3CO]-Asp-Ala-Glu-Phe-Arg^5-His-Asp- Ser-Gly-Tyr^10-Glu-Val-His-His-Gln^15-Lys-[NH2]”: in the series with N-domain of ACE (N-ACE) [2], the not cleaved result is on record as “complete inhibition of hydrolysis”.

With Ac-DAEFGHDSGFEVRHQK-NH2, the not cleaved result in the series with C-domain of ACE (C-ACE) is “complete inhibition of hydrolysis”; with N-domain of ACE (N-ACE) [3], “complete inhibition of hydrolysis”; in series [4], “absence of endopeptidase activity toward the G5-H6 peptide bond”. Also, the cleaved bond entry in [4] is on record as “Arg13-His14, 10 min”.

As to Pyr-HWSYGLRPG-[Amide], the fragment found result with N-domain of ACE [5] is reported as “N-terminal tripeptide”.

As to “Pyr-HWSYGLRPG-[Amide] [luliberin, regulatory peptide, natural substrate of ACE]”, the “Endoproteolytic cleavage by the N-domain of ACE” value in the series on N-domain of ACE [6] is “cleaves an N-terminal tripeptide”.

As for “Ac-DAEFGHDSGFEVRHQK-NH2 [[CH3CO]-Asp-Ala-Glu-Phe-Gly^5-His-Asp- Ser-Gly- Phe^10-Glu-Val-Arg-His-Gln^15-Lys-[NH2]]”, the “Peptide bond hydrolysed by N-ACE” value in series [7] (bicarbonate buffer pH 7.8, 37 °C, incubation 40 min (Aβ(1-16)), 130 min (amidated Aβ peptides), 60 min (ratAβ peptide)) is “Arg13-His14”. For the same compound, the “Bond cleaved, N-ACE (backbone positions)” value in [7] (same digestion as products observed, N-ACE, 37 °C) is on record as 13–14. Further, the “Peptide bond(s) hydrolysed by C-ACE” value in series [8] is “Arg13-His14, His14-Gln15, and Gln15- Lys16”.
